Usually IC50 stands for the concentration needed to halve the response being measured.

Among the data in US20080167347A1, “Ctgf Expression Inhibitor” (SHIONGI & CO., LTD., priority 2005, published 2008) are IC50 values, retold here.

In this assay the test system is human CTGF promoter region containing TGF-β responsive element. The experiment in a line: Luciferase assay of CTGF promoter activity in Ms0-2-3 cells stimulated with TGF-β. The class given is cell-based. The conditions noted are these: Mesangial cell; Ms0-2-3 rat mesangial cells, TGF-β 2 ng/ml stimulation, luciferase activity after 24 hours; read-out: IC50 (inhibitory rate against CTGF promoter activity). How it is done:
Several kidneys of 6 to 8-week-old male Wistar rats were perfused with sterilized phosphate buffered saline (PBS) and excised. Glomeruli were isolated from the cortex by a sieving method (with 180, 125 or 63 μm mesh). Isolated glomeruli were cultured in RPMI1640 medium containing 20% bovine serum, 1% penicillin-streptomycin and 1% Hepes buffer at 37° C. under 5% carbon dioxide (CO2) atmosphere. After 3 weeks, the medium was changed to the new one. After 4 weeks, mesangial cells which proliferated and became confluent were diluted 2 to 5 times and subcultured. Subcultures were repeated over 20 times, and mesangial cells cultured in usual RPMI1640 medium containing 10% bovine serum, 1% penicillin-streptomycin and 1% Hepes buffer were cloned by a limiting dilution method to establish cell line Ms0-2. […]
Luciferase assay was performed with Ms0-2-3 cells which were cultured with serum-free medium for 48 hours. […] Substrate was added thereto and luciferase activity of each well was measured by luminometer. Enhancement of luciferase activity by TGF-β stimulation (without a compound) was determined as 100% and the inhibitory rate of activity by addition of the compound was calculated. The value obtained from the inhibitory curve was judged as the inhibitory rate against CTGF promoter activity and determined as IC50 value. […]

Structures are written as SMILES.

In the case of `O=C(Nc1cccc(C(F)(F)F)c1)c1cc(-c2ccc(OC(F)(F)F)cc2)ccc1O` [Compound 43], the IC50 stood at 0.102 µM.
